Data as given in patent US20220017866A1, “PRODUCTION METHODS FOR MEGAKARYOCYTES AND PLATELETS” (KYOTO UNIVERSITY, priority 2013, published 2022).
Where a SMILES comes first, the peptide text is derived from it. The star is where a group is joined. Cbz = O=C(OCc1ccccc1)*; CH2F = FC*

Tests used:
[1] = tested on: caspase-3/7; assay: Caspase-3/7 activity in the presence of Shield-1; type: cell-based, human; settings: Day 2
Experimental: (§1) Therefore, the activity of caspase-3/7 in the presence of Shield-1 was then measured.

[2] = tested on: c-MYC-DD-2A-BMI1-introduced cells
Experimental: as §1

[3] = tested on: megakaryocytic progenitor cells; assay: Expanding culture of c-Myc and BMI1-introduced cells with caspase inhibitor added in place of BCL-XL; type: cell-based, human; settings: 30 μM added after c-Myc and BMI1 introduction; culture for 66 days
Experimental: In place of expressing BCL-XL, another method for controlling caspase was investigated as follows. After c-Myc and BMI1 were introduced, a caspase inhibitor, i.e., Z-VAD FMK (Merck) (10 μM or 30 μM) was added. In this condition, culture was continued for 66 days. When BCL-XL was expressed, the cells proliferated by 64 times; whereas when 30 μM of Z-VAD FMK was added, the cells proliferated by 21 times (FIG. 10). In contrast, when DMSO was used (negative control), no proliferation was observed. Furthermore, when DMSO was used, the number of Annexin V positive cells was counted. As a result, many Annexin V positive cells were present (66.5%). From this, it was confirmed that apoptosis was not suppressed.

Row | activity of caspase-3/7 [1] | Compound | toxic effect [2] | number of megakaryocytic progenitor cells ([2]; c-MYC expression stabilized by adding Shield-1, Day 7) | cell proliferation [3]
1 | caspase was activated | CC[C@H](C(=O)N1CCCC[C@H]1C(=O)O[C@H](CCc1ccc(OC)c(OC)c1)c1cccc(OCCN2CCOCC2)c1)c1cc(OC)c(OC)c(OC)c1 [Shield-1] | did not have toxic effect | decreased in volume-dependent manner | 
2 |  | COC(=O)C[C@H](NC(=O)[C@H](C)NC(=O)[C@@H](NC(=O)OCc1ccccc1)C(C)C)C(=O)CF [Z-VAD FMK] (Cbz-Val-Ala-Asp(OMe)-CH2F) |  |  | 21 times
